# Source: patent publication US20110230481A2, “DERIVATIVES OF TETRABROMOBENZIMIDAZOLE, A PROCESS FOR THE PREPARATION THEREOF, A PHARMACEUTICAL COMPOSITION COMPRISING THE SAME, A METHOD OF USING THE SAME, A METHOD FOR MODULATING OR REGULATING SERINE/THREONINE KINASES, AND SERINE/THREONINE KINASES MODULATING AGENT” (SELVITA S.A., priority 2009, published 2011)
# Where two headings read alike, the source gives them in different places.
# What was measured:
# [1] = tested on: human chronic myelogenous leukemia MEG-01 cells; test: Growth inhibition test (MTS); type: cell-based; details: MEG01; 72 hours
# Protocol: (§1) Ten thousand cells of human chronic myelogenous leukemia MEG-01 were inoculated into each well of a 96-well microplate (manufactured by Corning Corp.) using RPMI 8226 medium (culture medium) containing 10% fetal calf serum (FCS). The same day, a dimethyl sulfoxide (DMSO) solution of each test compound prepared in a concentration of 10 mmol/L was further diluted with DMSO to the desired concentrations (0.1, 0.5, 1, 2.5, 5 and 10 micromol/L), and the diluted solution was added to each well. The individual wells were further cultured in 5% carbon dioxide at 37° C. for 72 hours. After completion of the culture, 10 μl MTS (3-(4,5-Dimethyl-2-thiazolyl)-5-(carboxymethoxyphenyl)-2-(4-sulfophenyl)-2H-tetrazolium, inner salt assay (CellTiter96® AQueous One Solution Cell Proliferation Assay, Promega) was added to each well, and culturing was performed in 5% carbon dioxide at 37° C. for 2 hours. Using a microplate spectrophotometer (Synergy 2 multi-mode microplate reader (BioTek)), the absorbance of each well was measured at 490 nm. The value for cells not incorporated with a test compound was designated as 100%. By comparing these values with the absorbance difference obtained at the well in which each test compound was added, the cell viability (% viability) after treatment with the test compound was calculated.
# [2] = tested on: human prostate carcinoma DU145 cells; test: Growth inhibition test (MTS); type: cell-based; details: 72 hours
# Protocol: as §1, with “Two” for “Ten”, “prostate carcinoma DU145” for “chronic myelogenous leukemia MEG-01”, “Corp.), and” for “Corp.)”, “DMEM” for “RPMI 8226”, “innersalt” for “inner salt”
# [3] = tested on: human myelomonocytic, biphenotypic leukemia MV4-11 cells; test: Growth inhibition test (MTS); type: cell-based; details: MV-4-11, 72 hours, read-out: Cytotoxicity in MTS assay (ED50)
# Protocol: as §1, with “myelomonocytic, biphenotypic” for “chronic myelogenous”, “MV4-11” for “MEG-01”, “Iscove's MDM” for “RPMI 8226”
# [4] = target: PIM2 (Homo sapiens, UniProt Q9P1W9); test: Radiometric kinase assay (HotSpot); details: for Selectivity for Pim-2 over CK2α: ratio of IC50 values
# Sequence of PIM2 (Q9P1W9 whole entry): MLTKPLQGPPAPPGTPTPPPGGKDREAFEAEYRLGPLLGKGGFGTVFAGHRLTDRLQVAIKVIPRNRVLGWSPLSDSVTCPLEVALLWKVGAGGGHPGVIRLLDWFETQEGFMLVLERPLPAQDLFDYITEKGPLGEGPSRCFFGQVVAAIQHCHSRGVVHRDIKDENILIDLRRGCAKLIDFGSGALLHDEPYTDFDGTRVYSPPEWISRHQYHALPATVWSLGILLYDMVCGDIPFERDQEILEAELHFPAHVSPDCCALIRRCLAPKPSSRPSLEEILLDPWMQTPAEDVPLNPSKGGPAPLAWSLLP
# Protocol: Kinase assays were performed at Reaction Biology Corporation (www.reactionbiology.com, Malvern Pa.) using the “HotSpot” assay platform. This assay platform is based on a radiometric filtration binding assay and is considered as the “gold standard” to which non-radiometric methods are compared. In this assay format, the kinase reaction is performed in the presence of 32 P-γ-ATP or 33 P-γ-ATP, followed by binding of the final radioisotope labeled peptide product to filters after which unreacted phosphate is washed away and the levels of phosphorylated peptide are measured.
# [5] = tested on: human colorectal adenocarcinoma SW480 cells; test: Growth inhibition test (MTS); type: cell-based; details: 72 hours
# Protocol: as §1, with “Two” for “Ten”, “colorectal adenocarcinoma SW480” for “chronic myelogenous leukemia MEG-01”, “Corp.), and” for “Corp.)”, “DMEM/Ham's F121:1” for “RPMI 8226”, “5%” for “10%”
# [6] = tested on: human prostate adenocarcinoma PC3 cells; test: Growth inhibition test (MTS); type: cell-based; details: PC-3; 72 hours
# Protocol: as §1, with “Two” for “Ten”, “prostate adenocarcinoma PC3” for “chronic myelogenous leukemia MEG-01”, “Corp.), and” for “Corp.)”, “F12K (Ham's F12:[…]” for “RPMI”, “[…] 1:1)” for “8226”
# [7] = read-out: Inhibitory activity (IC50 in nM) in radiometric cell free assay, Pim-2, ATP 1 μM, peptide 5 μM
Structure (SMILES),Cytotoxicity in MTS assay (ED50) [1] [µM],Cytotoxicity in MTS assay (ED50) [2] [µM],"IC50 ([3]; Homo sapiens, MV4-11) [µM]",IC50 [4] [nM],Selectivity for Pim-2 over CK2α [4],Cytotoxicity in MTS assay (ED50) [5] [µM],Cytotoxicity in MTS assay (ED50) [6] [µM],IC50 [3] [µM],"IC50 [4, 7] [nM]"
"NCCCNc1nc2c(Br)c(Br)c(Br)c(Br)c2[nH]1 [Compound 11, N-(3-aminopropyl)-4,5,6,7-tetrabromo-1H-benzo[d]imidazol-2-amine]",7.85,7.62,1.78,98.2,10.3,3.46,7.32,–,–
"Brc1c(Br)c(Br)c2[nH]c(NCCN3CCCCC3)nc2c1Br [Compound 13, 4,5,6,7-tetrabromo-N-(2-(piperidin-1-yl)ethyl)-1H-benzo[d]imidazol-2-amine]",4.37,4.1,3.16,897,2.5,–,5.19,–,–
"Brc1c(Br)c(Br)c2[nH]c(NCCN3CCCC3)nc2c1Br [Compound 14, 4,5,6,7-tetrabromo-N-(2-(pyrrolidin-1-yl)ethyl)-1H-benzo[d]imidazol-2-amine]",3.35,3.14,1.29,618,1.3,–,5.47,–,–
"Brc1c(Br)c(Br)c2[nH]c(NCCN3CCOCC3)nc2c1Br [Compound 16, 4,5,6,7-tetrabromo-N-(2-morpholinoethyl)-1H-benzo[d]imidazol-2-amine]",–,8.64,2.17,3010,2.3,–,>10,–,–
"Brc1c(Br)c(Br)c2[nH]c(N3CCNCC3)nc2c1Br [Compound 20, 4,5,6,7-tetrabromo-2-(piperazin-1-yl)-1H-benzo[d]imidazole]",4.49,9.27,0.79,326,0.4,4.91,6.61,–,–
"CN1CCN(c2nc3c(Br)c(Br)c(Br)c(Br)c3[nH]2)CC1 [Compound 21, 4,5,6,7-tetrabromo-2-(4-methylpiperazin-1-yl)-1H-benzo[d]imidazole]",–,9.54,3.78,1690,1.1,–,>10,–,–
"Brc1c(Br)c(Br)c2c(Br)n[nH]c2c1Br [Compound K64, reference compound]",>10,>10,–,–,0.7,9.13,>10,>10,871
"CN(C)c1nc2c(Br)c(Br)c(Br)c(Br)c2n1CC(=O)O [Compound K66, reference compound]",>10,>10,–,–,0.2,>10,>10,>10,954
"CN(C)c1nc2c(Br)c(Br)c(Br)c(Br)c2[nH]1 [DMAT, reference compound]",8.91,>10,–,–,–,–,>10,3.15,2460
"Brc1c(Br)c(Br)c2[nH]nnc2c1Br [TBB, reference compound]",>10,>10,–,–,–,>10,>10,>10,> 20000
"Brc1c(Br)c(Br)c2[nH]cnc2c1Br [TBI, reference compound]",>10,>10,–,–,–,7.21,>10,>10,> 20000
